Measurements as given in paper PMC8279484 (Journal of Medicinal Chemistry, 2021).
Where “and” joins values, the source holds several entries; their conditions need not be identical. Equal values may be shown once.

Assays:
[1] = biological target: T1, ALX/FPR2 receptor (Homo sapiens, UniProt P25090); assay: Intracellular calcium flux in FPR2+/Gαq+ stably transfected HEK-293; assay type: cell-based; conditions: for Emax: HEK293, % delta calcium signal relative to peak of full agonist (1), 10 pM–100 nM, read-out: Efficacy Emax (%)
T1 construct: host or cells: HEK-293, stably double-transfected FPR2+/Gαq+
T1 sequence (P25090 1-351): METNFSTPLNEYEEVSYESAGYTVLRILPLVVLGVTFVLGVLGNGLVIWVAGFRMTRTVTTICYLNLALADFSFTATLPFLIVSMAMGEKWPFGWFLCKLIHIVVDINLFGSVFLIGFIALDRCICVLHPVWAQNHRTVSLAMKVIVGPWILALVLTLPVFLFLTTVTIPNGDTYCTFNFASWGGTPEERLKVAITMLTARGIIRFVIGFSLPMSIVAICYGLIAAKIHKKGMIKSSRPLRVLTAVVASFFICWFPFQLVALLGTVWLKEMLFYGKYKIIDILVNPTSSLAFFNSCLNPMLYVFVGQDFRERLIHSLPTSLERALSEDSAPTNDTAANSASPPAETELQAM
Description: HEK-293-transfected and wt cell lines were cultured in Dulbecco’s modified Eagle’s medium (DMEM Glutamax, 4 mM L-glu and 4.50 g/L glucose—Gibco, Ireland) supplemented with heat-inactivated (30 min at 56C) 10% (v/v) FBS (Invitrogen, U.K.), 50 U penicillin, and 50 μg of streptomycin (Invitrogen, U.K.). As stably double-transfected FPR2^+/Gαq^+ HEK-293 cells were resistant to Geneticin and Hygromycin, these were used as selective antibiotics (500 and 100 μg/mL, respectively) to maintain the stable double transfection with the ALX/FPR2 receptor and the Gαq subunit coupled to it. Immediately prior to calcium measurement, fluorescently labeled cells were treated with 10^–11/–9/–7M LXA41 or sLXms using an injection system coupled to the fluorescence reader.
To explore the mechanism of action through which the sLXm lead compound exerts the effects seen here, its interaction with the ALX/FPR2 receptor was investigated and agonist-induced intracellular calcium transients were measured using an engineered cell line stably overexpressing the ALX/FPR2 receptor and the Gαq subunit coupled to it (Figure S6). Wild-type HEK cells were used as controls, to verify the specificity of the agonism toward ALX/FPR2, as previously reported.[36] Briefly, prior to cell plating, sterile 96-well plates (black-sided with optically clear glass flat bottoms) were PDL-coated overnight. Subsequently, 2 × 10^5 wild-type cells and overexpressed cells/well were cultured for 18 h in DMEM complete media (containing Ca^2+ and Mg^2+) to facilitate adherence prior to labeling with Fluo-4 dye. After 1 h of incubation at 37 °C with Fluo-4, cells were gently washed twice and placed in 100% Hanks’ balanced salt solution (HBSS; 37 °C) before reading the fluorescence (485/535 nm), using a spectrophotometer conjugated with an injection system (Clariostar BMG LABTECH plate reader), allowing addition to the cells of controls ([…], 2 nM Wp, a synthetic ALX/FPR2 agonist) or experimental treatments [10 pM, 1 nM, and 100 nM LXA41 or (R)-6].
During calcium flux measurement, the kinetic steps involved were the following: the baseline fluorescent signal was measured for 20 s, followed by 100 s immediately after agonist injection. Subsequently, 2% Triton-X-100 was added to lyse the cells (monitoring for 20 s the maximal release of calcium ions in the extracellular environment) and, finally, 25 mM tetraacetic acid (EGTA) was added to chelate calcium ions (monitoring for additional 20 s the minimal detection of calcium ions in the extracellular environment) (Figure S7).
The “coding” of the heat-map indicates the arbitrary criteria to assign points to each single PD component (efficacy = Imax or Emax; potency = IC50 or EC50; slope = HS) to generate a final (aggregate) relative PD score. If a single PD component was greater than the reference level (x > 1), then the single-component relative score was arbitrarily set to +1 (light green) or +2 (dark green). If a single PD component was equal to the reference level (x = 1), then the single-component relative score was arbitrarily set to 0 (gray). If a single PD component was smaller than the reference level (x < 1), then the single-component relative score was arbitrarily set to −1 (light red) or −2 (dark red). If the curve of a single PD component was best fitting to a flat line (x = 0), then the single-component relative score was arbitrarily set to −4 (purple) (Table S1).

[2] = tested on: THP-1 LUCIA monocytes; assay: Intrinsic cytotoxicity: LDH release without LPS; assay type: cell-based, human; conditions: for Intrinsic Toxicity Level: LDH-associated level of cytotoxicity (high / moderate / low); for intrinsic LDH release versus vehicle / spontaneous cell release: absence of LPS, 24 h, controls Dex 1 μM, 2 1 pM, 5 1 pM; for Intrinsic Toxicity TC50 (pM): half-maximal intrinsic LDH-associated toxic activity, no LPS
Method in brief: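 THP-1-Lucia NF-κB cells exposed 24 h to compounds, vehicle or controls, then LPS-stimulated for extrinsic, unstimulated for intrinsic. Supernatant LDH read at 490 nm minus 690 nm, relative to vehicle; maximum release from 2% Triton-X-100 lysis, spontaneous release from untreated cells; LPS response set to 100%.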

[3] = tested on: THP-1-MF0 macrophage; assay: Phagocytosis of fluorescent E. coli bioparticles by THP-1-MF0 macrophages; assay type: cell-based, human; conditions: for EC50: Homo sapiens, Macrophage, 30 min pretreatment, read-out: Potency EC50; for EC50 / Efficacy Emax (%): 2 h bioparticles; for Efficacy Emax (%): 30 min pretreatment 1 fM–1 μM, figure expresses fold change
Description: Mycoplasma-free THP-1 monocytes were grown in an RPMI 1640 (Gibco) medium containing 2 mM L-glutamine, 2.00 g/L sodium bicarbonate, and 2.00 g/L glucose. Then, 10% (v/v) heat-inactivated FBS (30 min at 56 °C) and Pen-Strep (100 U/mL to 100 μg/mL) were supplemented to the growth media.
Cell adherence was allowed for 1 h and 30 min at 37 °C/5% CO2. Cells were then treated for 30 min with controls and phagocytosis effectors for testing (vehicle, LXs, Rvs, or sLXms). Subsequently, media containing controls/effectors were vacuum-aspirated and replaced with a solution containing fluorescently prelabeled E. coli-derived bioparticles and cells were incubated in the dark for 2 h at 37 °C/5% CO2 to allow particle ingestion by monocytes/macrophages. After that, media containing bioparticles were vacuum-aspirated and replaced with a solution containing trypan blue and cells were incubated for 1 min at room temperature to allow quenching of unbound particles to ensure specificity of the fluorescent signal, deriving only from ingested particles (not shown). After aspiration of Trypan, the fluorescence reading was immediately performed at the following conditions: end point; reading from the bottom of the plate; Ex.480/Em.520 nm.

SMILES	Slope HS [1]	type of agonism at ALX/FPR2 [1]	ALX/FPR2 activation lower than that induced by native LXA4 ([1]; both at 10 pM) [%]	(Single component) Rel. Score: Rel. Eff. ([1]; relative to LXA4 (1))	(Single component) Rel. Score: Rel. Sl. ([1]; relative to LXA4 (1))	Efficacy Rel. Eff. ([1]; relative to LXA4 (1))	Potency Rel. Pot. ([1]; relative to LXA4 (1))	Rel. Slope ([1]; relative to LXA4 (1))	EC50 [3] [nM]	Emax [1] [%]	(Aggregate) Rel. PD Score ([1]; relative to LXA4 (1))	Intrinsic Toxicity Level [2]	intrinsic LDH release versus vehicle / spontaneous cell release [2]	Intrinsic Toxicity TC50 (pM) [2] [pM]	Potency Rel. Pot. ([3]; relative to LXA4 (1))	Single comp. score Rel. Pot. ([3]; relative to LXA4 (1))	Efficacy Emax (%) [3]	concentration of peak phagocytosis ([3]; back to baseline at 1 μM) [nM]	increase of phagocytosis ([3]; concentration-dependent, at peak) [fold]	Efficacy Rel. Eff. ([3]; relative to LXA4 (1))
CCCCC[C@@H](O)c1nc2ccccc2nc1/C=C/[C@H]1OC(C)(C)O[C@H]1CCCC(=O)OC [(R)-17, Methyl 4-((4S,5R)-5-((E)-2-(3-((R)-1-Hydroxyhexyl)quinoxalin-2-yl)vinyl)-2,2-dimethyl-1,3-dioxolan-4-yl)butanoate]														100						
CCCCCCC[C@H](O)c1nc2ccccc2nc1/C=C/[C@@H](O)[C@@H](O)CCCC(=O)OC [(S)-8, Methyl (5S,6R,E)-5,6-Dihydroxy-8-(3-((S)-1-hydroxyoctyl)quinoxalin-2-yl)oct-7-enoate]												Low	lower than the vehicle	100						

The next lines start with results.

Slope HS [1]	type of agonism at ALX/FPR2 [1]	ALX/FPR2 activation lower than that induced by native LXA4 ([1]; both at 10 pM) [%]	(Single component) Rel. Score: Rel. Eff. ([1]; relative to LXA4 (1))	(Single component) Rel. Score: Rel. Sl. ([1]; relative to LXA4 (1))	Efficacy Rel. Eff. ([1]; relative to LXA4 (1))	Potency Rel. Pot. ([1]; relative to LXA4 (1))	Rel. Slope ([1]; relative to LXA4 (1))	EC50 [3] [nM]	Emax [1] [%]	(Aggregate) Rel. PD Score ([1]; relative to LXA4 (1))	SMILES	Intrinsic Toxicity Level [2]	intrinsic LDH release versus vehicle / spontaneous cell release [2]	Intrinsic Toxicity TC50 (pM) [2] [pM]	Potency Rel. Pot. ([3]; relative to LXA4 (1))	Single comp. score Rel. Pot. ([3]; relative to LXA4 (1))	Efficacy Emax (%) [3]	concentration of peak phagocytosis ([3]; back to baseline at 1 μM) [nM]	increase of phagocytosis ([3]; concentration-dependent, at peak) [fold]	Efficacy Rel. Eff. ([3]; relative to LXA4 (1))
220	equipotent partial agonist	40	-2	1 (1 < x < 10)	0.61	1	1.46	0.05			CCCCC[C@@H](O)c1nc2ccccc2nc1/C=C/[C@@H](O)[C@@H](O)CCCC(=O)OC [(R)-6, Methyl (5S,6R,E)-5,6-Dihydroxy-8-(3-((R)-1-hydroxyhexyl)quinoxalin-2-yl)oct-7-enoate]	Low and low cytotoxicity	lower than the vehicle	500	100	2 (x ≥ 5)				
150	full agonist				1	1	1		100		CCCCC[C@H](O)/C=C/C=C\C=C\C=C\[C@@H](O)[C@@H](O)CCCC(=O)O [Compound 1, LXA4]				1		4.2 ± 0.5% and 4.2 ± 2%	100	4	0
258				2 (x ≥ 10)	0.99	1	1.72	0.01	99 ± 17	2	CCCCC[C@@H](O)c1c(/C=C/[C@@H](O)[C@@H](O)CCCC(=O)OC)nc(C)n1C [Compound 5, imidazolo-LXA4]		did not display any significant cytotoxic effect		500	2 (x ≥ 5)	4.2 ± 0.7%			
